Assay results published in article PMC4279137 (Pharmaceutics, 2014).
Where two headings read alike, the source gives them in different places. Values belong to the compound of their own block, whether it stands above or below them.

How the values were obtained:
SLCO1B1 = test: Induction assay, mRNA by real-time RT-PCR in LS180 cells: SLCO1B1; type: cell-based, human; details: four days, at higher concentrations
Description: (§1) The human colon adenocarcinoma cell line LS180 (available at ATCC, Manassas, VA, USA) was used for induction experiments as a surrogate for the intestine being a major site of drug interactions and being an ideal model for investigating PXR and AhR mediated induction. Cells were cultured as described previously. For the induction experiments, LS180 cells were seeded in 75 cm^2 culturing flasks and incubated for three days. […] Rifampicin (20 µM) served as a positive control and culture medium with 0.02% DMSO as a negative control. For induction of CYP1A1 and CYP1A2, 5 nM TCDD was used as a positive control. All incubation solutions were adjusted to 0.02% DMSO. […]
(§2) RNA was isolated using the RNeasy Mini-Kit and cDNA was synthesised with the RevertAid™ H Minus First Strand cDNA Synthesis Kit according to the manufacturer’s instructions. mRNA expression was quantified by real-time RT-PCR with the LightCycler® 480 (Roche Applied Science, Mannheim, Germany) as described previously. […] Data were evaluated by calibrator-normalised relative quantification with efficiency correction using the LightCycler® 480 software version 1.5 (Roche Applied Science, Mannheim, Germany). The software calculated the relative amount of the target gene and the reference gene (G6PDH) based on the crossing points. Results were expressed as the target/reference ratio divided by the target/reference ratio of the calibrator. […]

[1] = Stock solution in DMSO (highest possible solution); type: physicochemical
ABCC3 = test: Induction assay, mRNA by real-time RT-PCR in LS180 cells: ABCC3; type: cell-based, human; details: 0.1-5 µM, four days
Description: as §1, §2

ABCB1 = test: Induction assay, mRNA by real-time RT-PCR in LS180 cells: ABCB1; type: cell-based, human; details: four days, at higher concentrations
Description: as §1, §2

CYP3A4 [2] = target: CYP3A4 (Homo sapiens, UniProt P08684); test: in vitro
Description: (§3) Inhibition studies were performed with the CYP2D6/AMMC, the CYP2C19/CEC, and the CYP3A4/BFC High Throughput Inhibitor Screening Kit (Becton Dickinson Biosciences, Heidelberg, Germany) according to the manufacturer’s instructions. The Screening Kits contain the respective recombinant CYP and fluorogenic substrates, which are blocked dyes yielding minimal fluorescence signal until cleaved by the enzyme. […] Eight concentrations (9 nM–20 µM) were tested and the experiment was conducted in triplicate.

CYP2D6 = target: T1, CYP2D6 (Homo sapiens, UniProt P10635); test: CYP2D6/AMMC High Throughput Inhibitor Screening Kit; type: biochemical; details: tested up to 20 µM
T1 construct: purchased Becton Dickinson Biosciences, Heidelberg, Germany
Description: as §3

UGT2B7 = test: Induction assay, mRNA by real-time RT-PCR in LS180 cells: UGT2B7; type: cell-based, human; details: four days, at higher concentrations
Description: as §1, §2

P-gp = test: Western blot analysis of P-gp expression in LS180 cells; type: cell-based, human; details: four days
Description: The human colon adenocarcinoma cell line LS180 (available at ATCC, Manassas, VA, USA) was used for induction experiments as a surrogate for the intestine being a major site of drug interactions and being an ideal model for investigating PXR and AhR mediated induction. Cells were cultured as described previously. For the induction experiments, LS180 cells were seeded in 75 cm^2 culturing flasks and incubated for three days. […] Rifampicin (20 µM) served as a positive control and culture medium with 0.02% DMSO as a negative control. For induction of CYP1A1 and CYP1A2, 5 nM TCDD was used as a positive control. All incubation solutions were adjusted to 0.02% DMSO. After harvesting, cells were splitted for RNA and protein extraction.

CYP1A1 = test: Induction assay, mRNA by real-time RT-PCR in LS180 cells: CYP1A1; type: cell-based, human
Description: as §1, §2

OATP1B3 [3] = target: T2, OATP1B3 (Homo sapiens, UniProt Q9NPD5); test: OATP inhibition assay (8-FcA flow cytometry uptake assay) in HEK-OATP1B3 cells; type: cell-based; details: 8-fluorescein-cAMP uptake
T2 construct: expressed in transfected cells; host or cells: HEK293 (HEK-OATP1B3)
Description: (§4) For assessing human organic antion transporting polypeptides (OATPs = solute carriers of organic anions (SLCOs)) inhibition, the human embryonic kidney cell line HEK293 stably transfected with OATP1B1 (HEK-OATP1B1), OATP1B3 (HEK-OATP1B3), or the empty control vector (HEK293-VC G418) were used. Cells were cultured under standard cell culture conditions with DMEM supplemented with 10% FCS, 2 mM glutamine, 100 U/mL penicillin, 100 µg/mL streptomycin sulphate, and 800 µg/mL G418. Cells were kindly provided by Dr. D. Keppler (German Cancer Research Centre, Heidelberg, Germany).
(§5) Inhibition of OATP1B1 and OATP1B3 was analysed by flow cytometric uptake of the fluorescent 8-FcA as described previously using HEK-OATP1B1, OATP1B3, and HEK293-VC G418 (as a control). […] Subsequently, cells were washed once with 1 mL ice-cold incubation medium and resuspended in 500 µL incubation medium and kept on ice until flow cytometry. Intracellular fluorescence was analysed in a Becton Dickinson LSRII flow cytometer (Becton Dickinson, Heidelberg, Germany) with a solid state coherent sapphire blue laser and a 530 bandpass filter for 8-FcA.
(§6) In each sample 30,000 cells were counted. Cell debris was eliminated by gating the viable cells in the forward versus side scatter. […] Each experiment was performed at least in triplicate.

ABCC2 = test: Induction assay, mRNA by real-time RT-PCR in LS180 cells: ABCC2; type: cell-based, human; details: four days, at higher concentrations
Description: as §1, §2

MDCKII = test: Growth inhibition assay in MDCKII cells; type: cell-based, canine; details: Canis lupus familiaris, MDCK-II; MDCKII parental cells
ABCG2 = test: Induction assay, mRNA by real-time RT-PCR in LS180 cells: ABCG2; type: cell-based, human; details: 0.1-5 µM, four days
Description: as §1, §2

[4] = Growth inhibition assay in MDCKII-BCRP cells; type: cell-based, canine; details: dog
CYP3A4 [5] = test: Induction assay, mRNA by real-time RT-PCR in LS180 cells: CYP3A4; type: cell-based, human; details: 0.1-5 µM, four days
Description: as §1, §2

ABCC1 = test: Induction assay, mRNA by real-time RT-PCR in LS180 cells: ABCC1; type: cell-based, human; details: 0.1-5 µM, four days
Description: as §1, §2

CYP2C19 [6] = target: T3, CYP2C19 (Homo sapiens, UniProt P33261); test: CYP2C19/CEC High Throughput Inhibitor Screening Kit; type: biochemical
T3 construct: purchased Becton Dickinson Biosciences, Heidelberg, Germany
Description: as §3

UGT1A3 = test: Induction assay, mRNA by real-time RT-PCR in LS180 cells: UGT1A3; type: cell-based, human; details: four days, at higher concentrations
Description: as §1, §2

SLCO2B1 = test: Induction assay, mRNA by real-time RT-PCR in LS180 cells: SLCO2B1; type: cell-based, human; details: four days, at higher concentrations
Description: as §1, §2

LS180 cells = test: Growth inhibition assay (crystal violet staining) in LS180 cells; type: cell-based; details: Homo sapiens, 48 h, read-out: IC20 for proliferation inhibition
Description: The human colon adenocarcinoma cell line LS180 (available at ATCC, Manassas, VA, USA) was used for induction experiments as a surrogate for the intestine being a major site of drug interactions and being an ideal model for investigating pregnane X receptor (PXR) and aryl hydrocarbon receptor (AhR) mediated induction. Cells were cultured under standard cell culture conditions with Dulbecco’s Modified Eagle’s Medium (DMEM) supplemented with 10% fetal calf serum, 2 mM glutamine, 100 U/mL penicillin, 100 µg/mL streptomycin sulphate, and 0.1 mM nonessential amino acids.
Growth inhibition assays in LS180 cells were conducted to determine suitable maximum concentrations for the induction assay without profound antiproliferative effects. Proliferation was quantified by crystal violet staining as described previously. […] Absorption was measured at 555 nm excitation. Proliferation was expressed as proliferation index, which was calculated as the absorption intensity of the test well in percentage points relative to zero proliferation (absorption of wells containing only medium set to 0%) and native proliferation (absorption intensity of untreated control cells set to 100%). […] Concentration-response curves and IC20 values were calculated by GraphPad Prism version 5.02 (GraphPad Software Inc., La Jolla, CA, USA) according to a sigmoid Emax model.

CYP1A2 = test: Induction assay, mRNA by real-time RT-PCR in LS180 cells: CYP1A2; type: cell-based, human
Description: as §1, §2

CYP2C19 [7] = test: Induction assay, mRNA by real-time RT-PCR in LS180 cells: CYP2C19; type: cell-based, human; details: 0.1-5 µM, four days
Description: as §1, §2

[8] = Growth inhibition assay in MDCKII-MDR1 cells; type: cell-based, canine; details: dog
NR1I2 = test: Induction assay, mRNA by real-time RT-PCR in LS180 cells: NR1I2; type: cell-based, human; details: four days, at higher concentrations
Description: as §1, §2

AhR = target: T4, AhR (Homo sapiens, UniProt P35869); test: AhR reporter gene assay in AZ-AhR cells; type: cell-based; details: 24 h, luciferase reporter, read-out: EC50 activation of AhR activity
T4 construct: endogenous in cells; host or cells: AZ-AhR (HepG2)
Description: Human hepatoma HepG2 cells stably transfected with a construct containing several AhR binding sites upstream of a luciferase reporter gene were used for the AhR reporter gene assays as described previously.
In total, 60,000 AZ-AhR cells were seeded into each well of 96-well plates with clear bottom and clear lid for luminometry. […] The assay was performed with the Steady-Glo™ Luciferase Assay System according to the manufacturer’s instructions. Drug-induced increases of AhR receptor activity were normalised to activity of non-drug treated controls set to 1 (=100%).

OATP1B1 [9] = target: T5, OATP1B1 (Homo sapiens, UniProt Q9Y6L6); test: OATP inhibition assay (8-FcA flow cytometry uptake assay) in HEK-OATP1B1 cells; type: cell-based; details: 8-fluorescein-cAMP uptake
T5 construct: expressed in transfected cells; host or cells: HEK293 (HEK-OATP1B1)
Description: as §4, §5, §6

BCRP = target: T6, BCRP (Homo sapiens, UniProt Q9UNQ0); parameters: method as in PMID 20222053; details: MDCKII-BCRP cells; read-out: IC50 BCRP inhibition, control compound; cited from earlier work
T6 construct: expressed in transfected cells; host or cells: MDCKII-BCRP (Madin-Darby canine kidney cells)

OATP1B3 [10] = target: T2, OATP1B3; parameters: method as in PMID 23219525; details: HEK-OATP1B3 cells; read-out: IC50 OATP1B3 inhibition, control compound; cited from earlier work
OATP1B1 [11] = target: T5, OATP1B1; parameters: method as in PMID 23219525; details: HEK-OATP1B1 cells; read-out: IC50 OATP1B1 inhibition, control compound; cited from earlier work

T3 sequence (P33261 whole entry): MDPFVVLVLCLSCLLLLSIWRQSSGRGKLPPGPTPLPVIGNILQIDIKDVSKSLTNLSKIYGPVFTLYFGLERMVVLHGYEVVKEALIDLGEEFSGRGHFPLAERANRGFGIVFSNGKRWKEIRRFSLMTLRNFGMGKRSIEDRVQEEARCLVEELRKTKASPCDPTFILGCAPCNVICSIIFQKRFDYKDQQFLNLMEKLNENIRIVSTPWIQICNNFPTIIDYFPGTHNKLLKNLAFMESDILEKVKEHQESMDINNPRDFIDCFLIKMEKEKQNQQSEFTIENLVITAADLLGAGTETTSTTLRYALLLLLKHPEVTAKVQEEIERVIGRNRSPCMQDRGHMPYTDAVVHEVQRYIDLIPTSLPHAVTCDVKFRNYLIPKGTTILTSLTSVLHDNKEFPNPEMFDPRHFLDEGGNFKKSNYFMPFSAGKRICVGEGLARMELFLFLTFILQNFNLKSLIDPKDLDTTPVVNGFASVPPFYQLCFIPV
T2 sequence (Q9NPD5 whole entry): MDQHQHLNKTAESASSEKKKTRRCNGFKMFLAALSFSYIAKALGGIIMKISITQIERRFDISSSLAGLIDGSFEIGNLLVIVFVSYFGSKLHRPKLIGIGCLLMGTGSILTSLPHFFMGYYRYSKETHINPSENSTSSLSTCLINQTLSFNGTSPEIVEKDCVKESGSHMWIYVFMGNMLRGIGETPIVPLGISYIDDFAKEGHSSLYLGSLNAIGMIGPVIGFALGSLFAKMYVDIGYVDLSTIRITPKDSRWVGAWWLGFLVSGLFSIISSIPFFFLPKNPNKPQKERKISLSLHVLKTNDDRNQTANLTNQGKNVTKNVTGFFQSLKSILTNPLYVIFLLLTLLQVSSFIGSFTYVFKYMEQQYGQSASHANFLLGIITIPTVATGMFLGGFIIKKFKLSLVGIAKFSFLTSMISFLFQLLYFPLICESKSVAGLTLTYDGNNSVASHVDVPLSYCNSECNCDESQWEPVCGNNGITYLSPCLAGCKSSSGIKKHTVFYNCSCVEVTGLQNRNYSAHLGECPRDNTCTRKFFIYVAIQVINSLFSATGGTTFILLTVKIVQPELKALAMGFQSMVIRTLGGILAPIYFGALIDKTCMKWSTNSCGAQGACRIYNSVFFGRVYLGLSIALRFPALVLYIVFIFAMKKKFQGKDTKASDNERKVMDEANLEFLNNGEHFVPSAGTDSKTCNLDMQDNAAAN
T5 sequence (Q9Y6L6 whole entry): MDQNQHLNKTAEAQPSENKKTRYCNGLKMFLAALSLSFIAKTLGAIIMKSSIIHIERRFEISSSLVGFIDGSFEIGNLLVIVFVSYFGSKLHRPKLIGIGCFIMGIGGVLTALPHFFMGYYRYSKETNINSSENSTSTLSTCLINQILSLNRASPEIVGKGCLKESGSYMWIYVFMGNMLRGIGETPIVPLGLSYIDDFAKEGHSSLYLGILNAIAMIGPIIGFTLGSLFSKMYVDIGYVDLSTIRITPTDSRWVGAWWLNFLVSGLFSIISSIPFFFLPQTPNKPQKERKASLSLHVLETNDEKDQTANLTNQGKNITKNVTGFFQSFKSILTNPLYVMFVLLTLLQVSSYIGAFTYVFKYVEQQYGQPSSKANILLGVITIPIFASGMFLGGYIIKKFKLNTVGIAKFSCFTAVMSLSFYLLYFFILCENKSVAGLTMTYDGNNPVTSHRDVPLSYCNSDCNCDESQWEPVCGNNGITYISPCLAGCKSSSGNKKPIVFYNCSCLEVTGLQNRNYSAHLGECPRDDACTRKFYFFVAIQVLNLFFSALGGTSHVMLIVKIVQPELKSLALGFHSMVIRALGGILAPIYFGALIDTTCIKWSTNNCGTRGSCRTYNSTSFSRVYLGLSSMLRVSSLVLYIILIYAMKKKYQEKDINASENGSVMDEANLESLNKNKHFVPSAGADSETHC
T1 sequence (P10635 whole entry): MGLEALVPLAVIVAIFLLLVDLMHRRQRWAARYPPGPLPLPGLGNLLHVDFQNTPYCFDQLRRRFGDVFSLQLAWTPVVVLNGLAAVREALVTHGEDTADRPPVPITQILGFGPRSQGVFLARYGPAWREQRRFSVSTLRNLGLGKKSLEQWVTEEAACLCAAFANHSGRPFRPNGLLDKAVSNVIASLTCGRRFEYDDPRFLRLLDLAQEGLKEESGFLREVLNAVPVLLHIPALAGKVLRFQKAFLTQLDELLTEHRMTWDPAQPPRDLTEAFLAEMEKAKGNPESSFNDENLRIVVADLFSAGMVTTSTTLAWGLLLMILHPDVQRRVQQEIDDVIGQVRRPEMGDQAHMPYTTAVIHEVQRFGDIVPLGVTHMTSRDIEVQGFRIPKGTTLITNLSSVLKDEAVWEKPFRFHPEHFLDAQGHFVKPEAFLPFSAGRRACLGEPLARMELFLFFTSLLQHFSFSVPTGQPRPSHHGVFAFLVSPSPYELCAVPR
Chain of CYP3A4 (Homo sapiens, UniProt P08684) (P08684 whole entry): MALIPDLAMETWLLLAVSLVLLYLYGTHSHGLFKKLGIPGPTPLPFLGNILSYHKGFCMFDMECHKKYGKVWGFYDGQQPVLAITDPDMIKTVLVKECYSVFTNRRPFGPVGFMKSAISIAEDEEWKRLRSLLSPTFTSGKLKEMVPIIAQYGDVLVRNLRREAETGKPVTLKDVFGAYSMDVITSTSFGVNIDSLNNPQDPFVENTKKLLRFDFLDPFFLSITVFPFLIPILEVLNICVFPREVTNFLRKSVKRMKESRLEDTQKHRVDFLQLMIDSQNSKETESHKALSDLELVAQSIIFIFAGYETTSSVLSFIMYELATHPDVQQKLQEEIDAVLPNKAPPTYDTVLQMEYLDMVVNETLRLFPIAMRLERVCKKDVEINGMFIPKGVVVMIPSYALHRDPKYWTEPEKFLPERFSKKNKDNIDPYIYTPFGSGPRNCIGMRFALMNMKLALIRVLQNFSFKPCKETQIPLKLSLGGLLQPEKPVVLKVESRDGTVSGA
T6 sequence (Q9UNQ0 whole entry): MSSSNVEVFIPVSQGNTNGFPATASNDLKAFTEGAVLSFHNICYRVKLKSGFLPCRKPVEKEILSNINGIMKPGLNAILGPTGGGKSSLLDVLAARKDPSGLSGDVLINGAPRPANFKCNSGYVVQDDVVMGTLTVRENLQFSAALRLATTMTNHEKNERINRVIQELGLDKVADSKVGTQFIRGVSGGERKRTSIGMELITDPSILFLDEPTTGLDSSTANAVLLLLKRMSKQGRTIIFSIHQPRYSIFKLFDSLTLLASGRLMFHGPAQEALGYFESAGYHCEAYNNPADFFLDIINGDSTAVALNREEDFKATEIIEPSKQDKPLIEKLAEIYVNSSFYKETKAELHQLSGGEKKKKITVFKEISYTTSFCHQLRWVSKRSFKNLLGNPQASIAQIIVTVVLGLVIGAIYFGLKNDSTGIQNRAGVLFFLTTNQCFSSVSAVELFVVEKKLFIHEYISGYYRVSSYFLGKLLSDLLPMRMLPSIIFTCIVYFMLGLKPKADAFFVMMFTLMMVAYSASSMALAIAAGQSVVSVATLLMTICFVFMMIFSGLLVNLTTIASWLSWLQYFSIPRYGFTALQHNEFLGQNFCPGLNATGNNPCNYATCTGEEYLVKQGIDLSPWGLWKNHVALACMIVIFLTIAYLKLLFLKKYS
T4 sequence (P35869 11-848): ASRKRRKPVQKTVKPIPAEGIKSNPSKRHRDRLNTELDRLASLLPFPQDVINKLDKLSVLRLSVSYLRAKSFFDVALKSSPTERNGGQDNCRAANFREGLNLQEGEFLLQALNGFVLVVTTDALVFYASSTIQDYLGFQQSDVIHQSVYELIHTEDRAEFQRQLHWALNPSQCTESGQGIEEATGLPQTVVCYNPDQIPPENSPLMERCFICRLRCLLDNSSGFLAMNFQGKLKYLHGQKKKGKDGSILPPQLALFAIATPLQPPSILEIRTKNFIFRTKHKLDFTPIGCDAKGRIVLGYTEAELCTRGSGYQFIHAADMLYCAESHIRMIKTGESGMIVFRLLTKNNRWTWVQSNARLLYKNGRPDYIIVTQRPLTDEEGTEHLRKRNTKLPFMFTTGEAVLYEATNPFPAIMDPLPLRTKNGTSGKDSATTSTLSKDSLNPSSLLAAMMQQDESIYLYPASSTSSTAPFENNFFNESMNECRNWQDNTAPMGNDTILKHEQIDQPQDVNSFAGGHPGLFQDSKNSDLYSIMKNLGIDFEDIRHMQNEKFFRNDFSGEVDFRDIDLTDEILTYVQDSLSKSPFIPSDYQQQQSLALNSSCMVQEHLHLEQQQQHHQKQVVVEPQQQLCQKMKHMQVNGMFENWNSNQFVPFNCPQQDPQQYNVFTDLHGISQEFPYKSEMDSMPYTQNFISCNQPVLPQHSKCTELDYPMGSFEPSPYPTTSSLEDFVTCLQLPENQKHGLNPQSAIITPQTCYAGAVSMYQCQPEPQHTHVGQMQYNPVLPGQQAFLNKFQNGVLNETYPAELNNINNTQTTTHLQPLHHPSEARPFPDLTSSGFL

stock solution, highest possible solution [1]: 10 mM | inhibition at 20 µM (CYP3A4 [2]): ~30% | CYP2D6 inhibition (CYP2D6): not inhibited at all | mRNA expression of CYP1A1 (CYP1A1; 0.1-5 µM, four days): induced | induction of CYP1A1 (mRNA) (CYP1A1; Figure 3): approximately 10 fold | IC50 (OATP1B3 [3]): > 100 µM | mRNA expression of CYP3A4 (CYP3A4 [5]): no influence | inhibition at 20 µM (CYP2C19 [6]; human, recombinant CYP2C19, probe CEC, at 20 µM): ~50% | mRNA expression of CYP1A2 (CYP1A2; 0.1-5 µM, four days): induced | induction of CYP1A2 (mRNA) (CYP1A2; Figure 3): approximately 10 fold | mRNA expression of CYP2C19 (CYP2C19 [7]): no influence | EC50 (AhR): 609 ± 282 nM | IC50 (OATP1B1 [9]): 76.5 ± 28.9 µM
Compound: CN1CCN(c2ccc3nc(-c4c(N)c5c(F)cccc5[nH]c4=O)[nH]c3c2)CC1 [Dovitinib]
mRNA expression of SLCO1B1 (SLCO1B1): reduced | mRNA expression of ABCC3 (ABCC3): induced | mRNA expression of ABCB1 (ABCB1): reduced | mRNA expression of UGT2B7 (UGT2B7): reduced | P-gp protein expression (western blot) (P-gp; at 0.1 and 0.5 µM): small increase in P-gp expression | P-gp protein expression (western blot) (P-gp; at higher dovitinib concentrations): suppression of P-gp protein expression | mRNA expression of ABCC2 (ABCC2): reduced | IC50 (MDCKII): 20 ± 2.9 µM | mRNA expression of ABCG2 (ABCG2): induced | IC50 at 48 h [4]: 21.4 ± 3.6 µM | mRNA expression of ABCC1 (ABCC1): no influence | mRNA expression of UGT1A3 (UGT1A3): reduced | mRNA expression of SLCO2B1 (SLCO2B1): reduced | IC20 (LS180 cells): 4.9 ± 2.5 µM | IC50 at 48 h [8]: 18.3 ± 4.1 µM | mRNA expression of NR1I2 (NR1I2): reduced

Compound: COc1ccc2c3c([nH]c2c1)[C@H](C=C(C)C)N1C(=O)[C@@H]2CCCN2C(=O)[C@@H]1C3 [Fumitremorgin C]
IC50 (BCRP): 700 ± 300 nM

Compound: CO[C@H]1/C=C/O[C@@]2(C)Oc3c(C)c(O)c4c(O)c(c(/C=N/N5CCN(C)CC5)c(O)c4c3C2=O)NC(=O)/C(C)=C\C=C\[C@H](C)[C@H](O)[C@@H](C)[C@@H](O)[C@@H](C)[C@H](OC(C)=O)[C@@H]1C [Rifampicin]
IC50 (OATP1B3 [10]): 2100 ± 1000 nM | IC50 (OATP1B1 [11]): 2400 ± 900 nM

IC50 (CYP2C19 [6]; control compound, read-out: IC50 CYP2C19 inhibition): 800 ± 200 nM
Compound: COc1ccc2[nH]c([S+]([O-])Cc3ncc(C)c(OC)c3C)nc2c1 (stereo not drawn) [omeprazole, Omeprazole]
